Assay results published in patent publication US7893278B2, “CIS-imidazolines” (Hoffman-La Roche Inc., priority 2004, dated 2011).

Target: interaction between p53 and MDM2 proteins (recombinant GST-tagged MDM2) (Homo sapiens, UniProt Q00987)
Assay: ELISA of inhibition of the interaction between p53 and MDM2 (GST-tagged MDM2 binding to immobilized p53-like peptide)
Conditions: recombinant GST-tagged MDM2 / biotinylated p53-like peptide

interaction between p53 and MDM2 proteins (recombinant GST-tagged MDM2), sequence (Q00987 whole entry): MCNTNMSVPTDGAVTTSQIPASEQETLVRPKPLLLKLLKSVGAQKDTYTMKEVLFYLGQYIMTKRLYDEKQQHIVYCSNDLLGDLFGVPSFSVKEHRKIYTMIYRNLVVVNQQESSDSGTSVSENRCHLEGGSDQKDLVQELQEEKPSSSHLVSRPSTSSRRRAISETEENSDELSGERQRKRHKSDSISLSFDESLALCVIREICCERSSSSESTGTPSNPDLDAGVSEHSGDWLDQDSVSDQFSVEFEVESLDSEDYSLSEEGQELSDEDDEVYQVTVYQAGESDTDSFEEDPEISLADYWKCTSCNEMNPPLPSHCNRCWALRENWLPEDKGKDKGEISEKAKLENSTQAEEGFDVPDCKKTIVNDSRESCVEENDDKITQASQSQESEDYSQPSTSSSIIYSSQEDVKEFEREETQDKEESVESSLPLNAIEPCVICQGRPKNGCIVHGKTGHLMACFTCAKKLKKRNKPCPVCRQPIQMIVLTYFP

IC50: 71 nM
Structure (SMILES): COc1ccc(C2=N[C@@H](c3ccc(Cl)cc3)[C@@H](c3ccc(Cl)cc3)N2C(=O)N2CCC(N3CCCC3)CC2)c(OC(C)C)c1 [Example 5, [(4S,5R)-4,5-Bis-(4-chloro-phenyl)-2-(2-isopropoxy-4-methoxy-phenyl)-4,5-dihydro-imidazol-1-yl]-(4-pyrrolidin-1-yl-piperidin-1-yl)-methanone]
